Literature values as cited in patent US8541223B2, “Lactic acid bacteria having action of lowering blood uric acid level” (Meiji Co., Ltd., priority 2007, dated 2013).

System: dietary hyperuricemia model animals
Details: oral administration of allopurinol; from Food Function Research News vol. 14

For Oc1ncnc2[nH]ncc12 [allopurinol], the “blood uric acid level in the model animals” value is listed as “significantly suppressed”.
